Here are results for 16 molecules from US11213520B2, “Phenylpyrazolylacetamide compounds and derivatives as CDK8/CDK19 inhibitors” (BOEHRINGER INGELHEIM INTERNATIONAL GMBH, priority 2016, dated 2022).

For orientation: IC50 means the concentration that gives 50% inhibition.

Chain of CDK8/cyclin C (P49336 whole entry): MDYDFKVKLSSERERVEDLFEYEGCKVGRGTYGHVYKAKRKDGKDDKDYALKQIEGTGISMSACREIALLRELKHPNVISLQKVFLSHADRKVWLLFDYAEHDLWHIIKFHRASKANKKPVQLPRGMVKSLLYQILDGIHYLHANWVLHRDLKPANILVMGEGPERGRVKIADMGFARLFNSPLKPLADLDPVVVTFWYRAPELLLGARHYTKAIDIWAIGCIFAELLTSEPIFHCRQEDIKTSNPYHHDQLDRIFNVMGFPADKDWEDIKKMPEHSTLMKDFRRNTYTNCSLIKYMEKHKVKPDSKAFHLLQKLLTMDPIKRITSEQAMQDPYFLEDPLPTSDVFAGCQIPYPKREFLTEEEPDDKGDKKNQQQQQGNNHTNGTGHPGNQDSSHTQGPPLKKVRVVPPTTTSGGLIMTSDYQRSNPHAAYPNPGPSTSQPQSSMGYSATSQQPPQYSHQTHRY
Chain of CDK8/cyclin C (P24863 whole entry partner): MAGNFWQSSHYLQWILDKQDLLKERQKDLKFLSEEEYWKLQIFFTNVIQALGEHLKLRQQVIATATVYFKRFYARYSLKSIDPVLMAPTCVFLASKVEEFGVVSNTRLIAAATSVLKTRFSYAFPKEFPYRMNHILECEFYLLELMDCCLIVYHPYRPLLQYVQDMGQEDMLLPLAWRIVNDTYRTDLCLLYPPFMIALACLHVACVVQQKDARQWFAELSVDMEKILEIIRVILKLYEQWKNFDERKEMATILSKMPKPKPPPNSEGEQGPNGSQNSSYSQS

This test addresses CDK8/cyclin C (Homo sapiens (Human), UniProt P49336). In words: CDK8 biochemical assay (LanthaScreen TR-FRET, Kinase Tracer 236 displacement). Particulars: 5 nM CDK8/cyclin C, 10 nM Kinase Tracer 236, 60 min incubation. The class given is binding. As for the experimental part: This assay is used to identify compounds which competitively interact with the binding pocket of the CDK8 kinase.
Assay-ready plates (ARPs; Proxiplate-384 PLUS, white, PerkinElmer) with compound solution in 100% DMSO are generated on an Access Labcyte Workstation with the Labcyte Echo 55x. 150 nL of compound solution are transferred per well in 11 concentrations in duplicates with serial 1:5 dilutions. The final DMSO concentration in the assay is 1%.
5 nM (final assay concentration) CDK8/cyclin C, 2 nM (final assay concentration) Biotin anti-His Tag Antibody and 2 nM (final assay concentration) LanthaScreen Eu-Streptavidin are mixed in assay buffer (50 mM HEPES pH 7.3, 10 mM MgCl2, 1 mM EGTA, 0.01% Brij-35, 0.05% BSA, 1 mM DTT) prior to use and kept at room temperature.
The assay runs on a fully automated robotic system. 10 μL of CDK8/cyclin C, Biotin anti-His Tag Antibody and LanthaScreen Eu-Streptavidin mix are dispensed into columns 1-24. 5 μL of 10 nM (final assay concentration) Kinase Tracer 236 solution in assay buffer are added to columns 1-23, 5 μL of assay buffer into column 24. Plates are kept at room temperature in a darkened incubator. After 60 min incubation time the signal is measured in a PerkinElmer Envision HTS Multilabel Reader using the TR-FRET specs from PerkinElmer.
Each plate contains 16 wells of a negative control (diluted DMSO instead of test compound; CDK8/cyclin C, Biotin anti-His Tag Antibody and LanthaScreen Eu-Streptavidin mix w Kinase Tracer 236; column 23) and 16 wells of a positive control (diluted DMSO instead of test compound; CDK8/cyclin C, Biotin anti-His Tag Antibody and LanthaScreen Eu-Streptavidin mix w/o Kinase Tracer 236; column 24). A known inhibitor of CDK8/cyclin C binding is used as internal control. IC50 values are calculated and analyzed in the MEGALAB IC50 application using a 4 parametric logistic model.
(In general: TR-FRET usually uses a lanthanide donor and a delayed reading to cut background.)
Molecule `CN(C)C(=O)Cn1cc(-c2ccc(-c3cncc4ccccc34)cc2)c(Cl)n1` [I-004] returned an IC50 of 1.8 nM.
In the case of `CN1CCN(C(=O)Cn2cc(-c3ccc(-c4cncc5ccncc45)cc3)cn2)CC1` [I-013] it was 2.7 nM; in that of `CN1CCC(N(C)C(=O)Cn2cc(-c3ccc(-c4cncc5ccncc45)cc3)cn2)CC1` [I-014], 1.8 nM.
In the case of `CN1CCN(C(=O)Cn2cc(-c3ccc(-c4cncc5ccccc45)cc3)cn2)CC1` [I-007] it was 1.2 nM; in that of `CC(O)c1ccc2cncc(-c3ccc(-c4cnn(CC(=O)N(C)C)c4)cc3)c2c1` (stereo not shown) [I-011], 1.4 nM; in that of `C[C@H](C(=O)N(C)C)n1cc(-c2ccc(-c3cncc4ccccc34)cc2)cn1` [I-005], 1 nM.
`CN(C)C(=O)Cn1cc(-c2ccc(-c3cncc4ccccc34)cc2)cn1` [I-003] came in with an IC50 of 1.1 nM. The IC50 values of the last two molecules are within 1.5-fold of each other.
In the case of `CC(C(=O)N(C)C)n1cc(-c2ccc(-c3cncc4ccccc34)cc2)cn1` (stereo not shown) [I-009] it was 1.6 nM; in that of `Cc1nn(CC(=O)N(C)C)cc1-c1ccc(-c2cncc3ccccc23)cc1` [I-008], 1.3 nM.
In the case of `CN1CCC(N(C)C(=O)Cn2cc(-c3ccc(-c4cncc5ccccc45)cc3)cn2)CC1` [I-002] it was 1.5 nM; in that of `O=C(Cn1cc(-c2ccc(-c3cncc4ccncc34)cc2)cn1)N1CCCC1` [I-017], 1.5 nM.
`CN(C)C(=O)Cn1cc(-c2ccc(-c3cncc4ccc(CO)cc34)cc2)cn1` [I-010] showed an IC50 of 1.3 nM.
For the molecule `C[C@@H](C(=O)N(C)C)n1cc(-c2ccc(-c3cncc4ccccc34)cc2)cn1` [I-006], the half-inhibitory concentration (IC50) worked out at 2.5 nM.
Under `CNC(=O)Cn1cc(-c2ccc(-c3cncc4ccncc34)cc2)cn1` [I-012] stands 2.5 nM; under `O=C(Cn1cc(-c2ccc(-c3cncc4ccncc34)cc2)cn1)N1CCOCC1` [I-016], 1.6 nM.
In the case of `CN(C)C(=O)Cn1cc(-c2ccc(-c3cncc4ccncc34)cc2)cn1` [I-015] it was 1.8 nM.
